In US20170296505A1, “LONG-CHAIN CARBOXYCHROMANOLS AND ANALOGS FOR USE AS ANTI-INFLAMMATORY AGENTS” (Purdue Research Foundation, priority 2008, published 2017):
pIC50: −log10 of the molar value. Where two headings read alike, the source gives them in different places. One block for each compound: values may come before it.

How the values were obtained:
[1] = LC-MS analysis of fecal samples of mice fed δTE-13′; type: in vivo; conditions: mice fed with δTE-13′
Text: FIG. 6. Detection of δTE-13′-1 in fecal samples.

[2] = system: PGE2 in IL-1β treated A549 cells; experiment: PGE2 generation during chronic IL-1β treatment; type: cell-based, human; conditions: for pIC50: read-out: concentration to cause 50% inhibition of PGE2, in the presence of exogenous AA (5 μM, 5 min) after co-incubation with IL-1β
Procedure: (§1) A549 cells were pre-incubated with different concentrations of tocopherols in the presence or absence of 1 μM sesamin for 15 h, and then treated with IL-1β (2 ng/mL) for 24 h. PGE2 in the cell-culture media was measured by ELISA assays. Results are the averages of three independent experiments and expressed as Mean±SEM.
as §1, with “tocotrienols” for “tocopherols”
PGE2 generation during chronic IL-1β treatment—2.5−3×10^5 A549 cells per well were seeded in RPMI-1640 with 10% of FBS and allowed to attach overnight in a 24-well plate. Vitamin E stock solutions were initially made in DMSO and then diluted in 10 mg/mL of bovine serum albumin. Confluent cells were incubated in DMEM containing 1% FBS with DMSO (control) or vitamin E forms for 14-16 h and then 2 ng/ml of IL-1β was introduced for 24 hours. The medium was then collected and PGE2 accumulation was measured using ELISA assay from Cayman Chemicals (Ann Arbor, Mich.).
Statistical analysis—The unpaired student's t-test was used in the statistical analysis. All results are expressed as mean±SD. Activation of human lung epithelial A549 cells by IL-1β leads to a strong up-regulation of COX-2 protein expression and almost 100-fold increase of PGE2 generation. This cellular system has been employed to evaluate inhibitory potency of anti-inflammatory drugs, including COX inhibitors and was previously used by us to study the effect of α-T, γ-T and γ-CEHC on PGE2 formation (13, 20). […] Inhibition of PGE2 by γ-T, and γ-TE was also observed in the presence of exogenous AA, where after co-incubated with vitamin E forms and IL-1β, cells were incubated with fresh media containing 5 μM of AA for 5 min.

5-LOX = target: T1, 5-LOX (Homo sapiens, UniProt P09917); experiment: 5-LOX inhibition with purified human enzyme (Table 3); type: biochemical; conditions: mean±SEM
T1 sequence (P09917 1-674): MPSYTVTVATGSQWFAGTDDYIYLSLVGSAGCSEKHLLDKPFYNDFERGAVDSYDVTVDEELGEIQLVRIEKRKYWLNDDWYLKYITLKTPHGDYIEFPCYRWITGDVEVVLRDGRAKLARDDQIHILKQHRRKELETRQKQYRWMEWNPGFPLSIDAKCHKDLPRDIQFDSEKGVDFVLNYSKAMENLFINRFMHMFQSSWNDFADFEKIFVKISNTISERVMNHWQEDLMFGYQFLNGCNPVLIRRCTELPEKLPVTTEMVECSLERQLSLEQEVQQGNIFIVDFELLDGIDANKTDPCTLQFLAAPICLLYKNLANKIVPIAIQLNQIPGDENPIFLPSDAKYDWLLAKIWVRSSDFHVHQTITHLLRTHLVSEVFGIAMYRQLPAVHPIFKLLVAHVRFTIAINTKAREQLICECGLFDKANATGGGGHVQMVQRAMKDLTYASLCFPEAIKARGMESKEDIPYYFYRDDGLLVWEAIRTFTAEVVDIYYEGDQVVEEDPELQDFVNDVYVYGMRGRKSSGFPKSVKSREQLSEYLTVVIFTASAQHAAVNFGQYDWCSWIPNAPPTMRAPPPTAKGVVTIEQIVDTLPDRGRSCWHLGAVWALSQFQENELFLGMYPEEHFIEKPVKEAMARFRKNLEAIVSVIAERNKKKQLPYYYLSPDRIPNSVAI
Text: Results are mean±SEM based on four or more independent experiments.

A549 cells [3] = experiment: Cell viability of confluent A549 cells (MTT); type: cell-based, human; conditions: 100% confluent cells, 1% FBS
COX-2 [4] = target: T2, COX-2 (Homo sapiens, UniProt P35354); experiment: COX-2 inhibition with purified human enzyme (Table 3); type: biochemical; parameters: A549 cells were pre-treated with 0.5-1 ng/mL of IL-1β- for 6 hours to induce COX-2 expression; endogenous in cells; conditions: mean±SEM
T2 sequence (P35354 18-604): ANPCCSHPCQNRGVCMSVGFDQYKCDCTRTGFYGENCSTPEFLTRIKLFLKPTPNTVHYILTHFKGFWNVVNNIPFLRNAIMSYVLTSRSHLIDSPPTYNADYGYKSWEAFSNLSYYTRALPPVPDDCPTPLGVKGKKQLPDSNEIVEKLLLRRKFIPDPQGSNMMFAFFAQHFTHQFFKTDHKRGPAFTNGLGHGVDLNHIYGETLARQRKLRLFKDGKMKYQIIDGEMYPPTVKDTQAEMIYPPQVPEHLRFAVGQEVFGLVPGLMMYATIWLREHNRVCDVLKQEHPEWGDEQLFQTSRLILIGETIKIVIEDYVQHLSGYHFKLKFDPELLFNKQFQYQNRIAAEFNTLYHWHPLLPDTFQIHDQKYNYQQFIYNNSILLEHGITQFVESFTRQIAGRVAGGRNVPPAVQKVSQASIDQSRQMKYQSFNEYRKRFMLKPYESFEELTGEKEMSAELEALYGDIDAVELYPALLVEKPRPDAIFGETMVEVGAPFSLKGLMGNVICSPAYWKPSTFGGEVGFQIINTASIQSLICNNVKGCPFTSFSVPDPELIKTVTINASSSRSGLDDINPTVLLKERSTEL
Text: Free radical biology & medicine 95, 190-199. Results are mean±SEM based on four or more independent experiments.

COX-2 [5] = target: T2, COX-2; experiment: COX-2 activity assay using purified enzyme; type: biochemical; parameters: purchased Cayman Chemicals (Ann Arbor, Mich.); conditions: at 250 μM
Procedure: (§2) COX-1 and COX -2 activity assay using purified enzymes—The enzymatic reactions were performed in 0.1M Tris (pH 8.0), in the presence of 5 mM EDTA, 2 mM phenol, and 1 μM heme. […] Enzymatic reactions were initiated by addition of AA at a final concentration of 5 μM for 2 min. The reaction was stopped by addition of 0.1 M HCl. Stannous chloride in 0.1 M HCl was then added to reduce PGG2 and PGH2 to PGF2a. After addition of 0.5 vol of […] NaCl, prostaglandins formed in the reaction were extracted using 2.5 vol of ethyl acetate and the organic layer was completely dried under N2. PGF2a, and PGE2 were quantified using ELISA assays from Cayman Chemicals.

ovine COX-1 = target: T3, ovine COX-1 (Ovis aries, UniProt P05979); experiment: COX-1 activity assay using purified enzyme; type: biochemical
T3 construct: purchased Cayman Chemicals (Ann Arbor, Mich.)
T3 sequence (P05979 25-600): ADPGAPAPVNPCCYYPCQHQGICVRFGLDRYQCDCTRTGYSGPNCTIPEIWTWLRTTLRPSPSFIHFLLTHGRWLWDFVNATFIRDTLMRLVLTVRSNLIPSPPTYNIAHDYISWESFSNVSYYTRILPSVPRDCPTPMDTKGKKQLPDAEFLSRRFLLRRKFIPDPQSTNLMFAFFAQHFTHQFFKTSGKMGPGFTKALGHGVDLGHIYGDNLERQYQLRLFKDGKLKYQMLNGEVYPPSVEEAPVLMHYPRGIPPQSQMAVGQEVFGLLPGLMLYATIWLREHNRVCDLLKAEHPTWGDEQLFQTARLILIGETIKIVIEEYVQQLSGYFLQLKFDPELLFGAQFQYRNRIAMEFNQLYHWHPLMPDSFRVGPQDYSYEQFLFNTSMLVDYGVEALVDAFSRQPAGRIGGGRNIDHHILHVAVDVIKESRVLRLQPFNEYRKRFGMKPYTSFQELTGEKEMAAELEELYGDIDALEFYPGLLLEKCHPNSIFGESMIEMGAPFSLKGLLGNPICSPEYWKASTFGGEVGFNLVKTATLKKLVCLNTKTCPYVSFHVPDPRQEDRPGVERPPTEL
Procedure: as §2

[6] = system: IL-1beta-stimulated PGE2 formation in A549 cells; experiment: IL-1beta-stimulated PGE2 formation with or without sesamin (Table 4); type: cell-based, human; conditions: IL-1beta 2 ng/ml, 8 h; 13′-COOH 2.5 uM, sesamin 1 uM
Procedure: Briefly, A549 cells were stimulated with IL-1beta (2 ng/ml) in the presence of DMSO (ctrl, 0.1%), control with sesamin (1 uM), 13′-COOH (structure 1) at 2.5 uM, 13′-COOH with sesamin (1 uM). Basal control was cells incubated with medium without IL-1beta. Eight hours later, media were collected and PGE2 was measured by ELISA.

A549 cells [7] = experiment: Metabolites of vitamin E forms in A549 conditioned media (HPLC); type: in vitro ADME, human; conditions: 20 μM
Procedure: FIG. 3A illustrates that unconjugated long-chain carboxychromanols but not sulfated derivatives inhibited COX-2 activity in intact cells. […] Sulfated metabolites were the sum of 9′S, 11′S and 13′S, and unconjugated metabolites are the sum of 9′, 11′ and 13′. Conditioned media were obtained by incubation of A549 cells with γ-TE at 20 μM for 24, 48 and 72 h. Metabolites were extracted and measured using HPLC assay. The conditioned media were then used for the activity assay as described in FIG. 2A and 2B. Unsulfated/sulfated is the ratio of the sum of 9′, 11′ and 13′ to that of 9′S, 11′S and 13′S. All the results are expressed as Mean±SD. […]
Quantitation of vitamin E metabolites in conditioned media—Long-chain carboxychromanols and their sulfated counterparts were quantitated by a HPLC assay with fluorescent detection (17). […]
Extracted metabolites were separated using HPLC and detected by a Shimadzu RF-10AXL spectrofluorometric detector (Shimadzu, Columbia, Md.) with the excitation and emission wavelength at 292 nm and 327 nm, respectively. […] Long-chain metabolites were quantified using tocopherols as the external standards with a correction factor based on the linear relationship between fluorescent intensity and solvent content (17).

Structure (SMILES): CC(C)=CCC/C(C)=C/CC/C(C)=C/CC[C@]1(C)CCc2c(C)c(O)c(C)c(C)c2O1 [α-TE, α-Tocotrienol]
inhibition of PGE2 formation ([2]; at 20 μM, A549 cells co-treated with IL-1β): 20%

Structure (SMILES): CC(=O)Nc1ccc(O)cc1 [Acetaminophen, reference compound]
inhibition of COX-2 (COX-2 [5]): did not significantly inhibit
inhibition of COX-1 (ovine COX-1; at 250 μM): did not significantly inhibit
IC50 COX-1 (ovine COX-1; purified enzyme, Not inhibit: 9′ at 20 μM, acetaminophen at 250 μM): Not inhibit*

Structure (SMILES): c1cc2c(cc1[C@H]1OC[C@H]3[C@@H]1CO[C@@H]3c1ccc3c(c1)OCO3)OCO2 [sesamin, reference compound]
effect on PGE2 generation ([2]; sesamin alone at 1 μM): did not affect
PGE2 [6]: 12.46 ± 1.4 ng/mL

Structure (SMILES): CC(C)=CCC/C(C)=C/CC/C(C)=C/CC[C@]1(C)CCc2cc(O)c(C)c(C)c2O1 [γ-TE, γ-tocotrienol]
share of metabolites that are sulfated carboxychromanols (A549 cells [7]; 72-h incubation): more than 85%
share of metabolites that are unconjugated carboxychromanols (A549 cells [7]; first 24-h incubation): 90%
cell viability (MTT, cell morphology) (A549 cells [3]; 20 μM): did not show significant effects
effect of sesamin on the inhibitory potency on PGE2 ([2]; in the presence of 1 μM sesamin): moderately diminished
pIC50 [2]: 5.00

Now from value to compound, other results behind:

formation in fecal samples [1]: detected
Structure (SMILES): C/C(=C\CCC1(C)CCc2cc(O)cc(C)c2O1)CC/C=C(\C)CCCC(C)C(=O)O (centres unmarked) [δTE-13′-1]

pIC50 (5-LOX): < 4.30
pIC50 ([2]; Homo sapiens, A549, 5 min): 4.60
pIC50 (COX-2 [4]): < 4.30
Structure (SMILES): Cc1c(O)cc2c(c1C)OC(C)(CCCC(C)CCCC(C)CCCC(C)C)CC2 (centres unmarked) [γ-T]
cell viability (MTT, cell morphology) (A549 cells [3]; 25-50 μM): did not show significant effects

pIC50 (5-LOX): < 4.30
pIC50 ([2]; Homo sapiens, A549, 5 min): 5.00
pIC50 (COX-2 [4]): < 4.30
Structure (SMILES): Cc1cc(O)cc2c1OC(C)(CCCC(C)CCCC(C)CCCC(C)C)CC2 (centres unmarked) [δ-T]
cell viability (MTT, cell morphology) (A549 cells [3]; 25-50 μM): did not show significant effects
